In publication PMC7181660, “A novel specific PERK activator reduces toxicity and extends survival in Huntington's disease models” (Scientific Reports, 2020):
Where two headings read alike, the source gives them in different places.

Key:
Test in all cases: biochemical
Assay type in all cases: biochemical
[1] = molecular target: panel of 391 kinases (Homo sapiens, UniProt O14757); conditions: CHK1, MK-28 1 µM, ATP 1 µM
[2] = molecular target: panel of 391 kinases (Homo sapiens, UniProt Q9H4B4); conditions: PLK3, MK-28 1 µM, ATP 1 µM
[3] = molecular target: panel of 391 kinases (Homo sapiens, UniProt P80192); conditions: MLK1/MAP3K9, MK-28 1 µM, ATP 1 µM
[4] = molecular target: panel of 391 kinases (Homo sapiens, UniProt P49840); conditions: GSK3a, MK-28 1 µM, ATP 1 µM
[5] = molecular target: panel of 391 kinases (Homo sapiens, UniProt P29376); conditions: TYK1/LTK, MK-28 1 µM, ATP 1 µM
[6] = molecular target: panel of 391 kinases (Homo sapiens, UniProt P78368); conditions: CK1g2, MK-28 1 µM, ATP 1 µM
[7] = molecular target: panel of 391 kinases (Homo sapiens, UniProt Q8IYT8); conditions: ULK2, MK-28 1 µM, ATP 1 µM
[8] = molecular target: panel of 391 kinases (Homo sapiens, UniProt P21802); conditions: FGFR2, MK-28 1 µM, ATP 1 µM
[9] = molecular target: panel of 391 kinases (Homo sapiens, UniProt P51812); conditions: RSK2, MK-28 1 µM, ATP 1 µM
[10] = molecular target: panel of 391 kinases (Homo sapiens, UniProt O00141); conditions: SGK1, MK-28 1 µM, ATP 1 µM
[11] = molecular target: panel of 391 kinases (Homo sapiens, UniProt P29317); conditions: EPHA2, MK-28 1 µM, ATP 1 µM
[12] = molecular target: T1, panel of 391 kinases (Homo sapiens, UniProt Q9NR20); conditions: DYRK4, MK-28 1 µM, ATP 1 µM
T1 sequence (Q9NR20 1-520): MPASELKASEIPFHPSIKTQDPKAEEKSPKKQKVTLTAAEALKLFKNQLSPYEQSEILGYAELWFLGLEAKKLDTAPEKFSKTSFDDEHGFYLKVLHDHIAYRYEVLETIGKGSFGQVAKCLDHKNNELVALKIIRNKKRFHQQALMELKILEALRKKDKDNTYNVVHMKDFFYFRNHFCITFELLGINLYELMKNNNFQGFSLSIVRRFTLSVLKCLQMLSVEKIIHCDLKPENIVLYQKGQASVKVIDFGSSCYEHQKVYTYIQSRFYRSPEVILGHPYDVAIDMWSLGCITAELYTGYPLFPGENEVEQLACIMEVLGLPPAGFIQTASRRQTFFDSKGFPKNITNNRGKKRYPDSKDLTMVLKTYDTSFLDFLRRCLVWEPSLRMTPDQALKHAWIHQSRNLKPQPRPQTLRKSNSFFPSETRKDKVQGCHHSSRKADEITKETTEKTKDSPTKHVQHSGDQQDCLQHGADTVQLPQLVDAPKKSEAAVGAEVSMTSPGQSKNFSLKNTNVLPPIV

[13] = molecular target: panel of 391 kinases (Homo sapiens, UniProt O96013); conditions: PAK4, MK-28 1 µM, ATP 1 µM
[14] = molecular target: panel of 391 kinases (Homo sapiens, UniProt P41743); conditions: PKCiota, MK-28 1 µM, ATP 1 µM
[15] = molecular target: panel of 391 kinases (Homo sapiens, UniProt P22455); conditions: FGFR4, MK-28 1 µM, ATP 1 µM
[16] = molecular target: panel of 391 kinases (Homo sapiens, UniProt P49674); conditions: CK1epsilon, MK-28 1 µM, ATP 1 µM
[17] = molecular target: panel of 391 kinases (Homo sapiens, UniProt Q04759); conditions: PKCtheta, MK-28 1 µM, ATP 1 µM
[18] = molecular target: panel of 391 kinases (Homo sapiens, UniProt P05771); conditions: PKCb1, MK-28 1 µM, ATP 1 µM
[19] = molecular target: panel of 391 kinases (Homo sapiens, UniProt Q13163); conditions: MEK5, MK-28 1 µM, ATP 1 µM
[20] = molecular target: panel of 391 kinases (Homo sapiens, UniProt Q00534); conditions: MK-28 1 µM, ATP 1 µM; for remaining activity at 1 µM: read-out: % Enzyme Activity (relative to DMSO controls)
[21] = molecular target: panel of 391 kinases (Homo sapiens, UniProt Q96PN8); conditions: TSSK3/STK22C, MK-28 1 µM, ATP 1 µM
[22] = molecular target: panel of 391 kinases (Homo sapiens, UniProt P12931); conditions: c-Src, MK-28 1 µM, ATP 1 µM
[23] = read-out: % Enzyme Activity (relative to DMSO controls)

With `CN(/N=C\c1ccc(O)c(O)c1)c1nc(-c2ccccc2)cc(-c2ccccc2)n1` [MK-28] the “% Enzyme Activity (relative to DMSO controls)” value [1] was 141.74%, the remaining activity at 1 µM [1, 23] was 150% and the “% Enzyme Activity (relative to DMSO controls)” value [2] was 87.19%. For the same molecule, the remaining activity at 1 µM [2, 23] was 91.2%, the “% Enzyme Activity (relative to DMSO controls)” value [3] was 91.08% and the remaining activity at 1 µM [3, 23] was 91.3%. For the same molecule, the “% Enzyme Activity (relative to DMSO controls)” value [4] was 82.88%, the remaining activity at 1 µM [4, 23] was 83% and the “% Enzyme Activity (relative to DMSO controls)” value [5] was 82.78%. The remaining activity at 1 µM [5, 23] was 84.2%, the “% Enzyme Activity (relative to DMSO controls)” value [6] was 83.33% and the remaining activity at 1 µM [6, 23] was 87%. For the same molecule, the “% Enzyme Activity (relative to DMSO controls)” value [7] was 98.62%, the remaining activity at 1 µM [7, 23] was 102% and the “% Enzyme Activity (relative to DMSO controls)” value [8] was 102.46%. The remaining activity at 1 µM [8, 23] was 103%, the “% Enzyme Activity (relative to DMSO controls)” value [9] was 95.23% and the remaining activity at 1 µM [9, 23] was 99.7%. The “% Enzyme Activity (relative to DMSO controls)” value [10] was 103.26%, the remaining activity at 1 µM [10, 23] was 108% and the “% Enzyme Activity (relative to DMSO controls)” value [11] was 99.61%. The remaining activity at 1 µM [11, 23] was 100%, the “% Enzyme Activity (relative to DMSO controls)” value [12] was 99.42% and the remaining activity at 1 µM [12, 23] was 101%. The “% Enzyme Activity (relative to DMSO controls)” value [13] was 97.48%, the remaining activity at 1 µM [13, 23] was 97.6% and the “% Enzyme Activity (relative to DMSO controls)” value [14] was 105.00%. For the same molecule, the remaining activity at 1 µM [14, 23] was 105%, the “% Enzyme Activity (relative to DMSO controls)” value [15] was 100.59% and the remaining activity at 1 µM [15, 23] was 105%. The “% Enzyme Activity (relative to DMSO controls)” value [16] was 82.77%, the remaining activity at 1 µM [16, 23] was 83.4% and the “% Enzyme Activity (relative to DMSO controls)” value [17] was 123.95%. The remaining activity at 1 µM [17, 23] was 128%, the “% Enzyme Activity (relative to DMSO controls)” value [18] was 108.67% and the remaining activity at 1 µM [18, 23] was 111%. For the same molecule, the “% Enzyme Activity (relative to DMSO controls)” value [19] was 100.81%, the remaining activity at 1 µM [19, 23] was 105% and the “% Enzyme Activity (relative to DMSO controls)” value ([20]; CDK6/cyclin D1) was 98.75%. For the same molecule, the remaining activity at 1 µM ([20]; CDK6/cyclin D1) was 102%, the “% Enzyme Activity (relative to DMSO controls)” value ([20]; CDK6/cyclin D3) was 86.79% and the remaining activity at 1 µM ([20]; CDK6/cyclin D3) was 87.6%. For the same molecule, the “% Enzyme Activity (relative to DMSO controls)” value [21] was 86.26%, the remaining activity at 1 µM [21, 23] was 88% and the “% Enzyme Activity (relative to DMSO controls)” value [22] was 96.32%. It also gave a remaining activity at 1 µM [22, 23] of 97.7%.
